ChEMBL document CHEMBL5724914, “Linking interpersonal differences in gut microbiota composition and drug biotransformation activity” (2024)

Experiments:
[1] = (§1) The drug is tested on Z-025 corresponding to rabbit gut metagenome with ENA study accession number: PRJEB37062 and ENA sample accession number: ERS12561824 for biotransformation under anaerobic condition. The drug concentrations were measured over 9 timepoints collected between 0 and 24 hours of incubation by liquid-chromatography-coupled mass spectrometry (LC–MS); conditions: 2 µM
[2] = as §1, with “Z-024” for “Z-025”, “pig” for “rabbit”, “ERS12561823” for “ERS12561824”; conditions: 2 µM
[3] = as §1, with “Z-021” for “Z-025”, “to” for “to rabbit gut”, “ERS12561820” for “ERS12561824”; conditions: 2 µM
[4] = as §1, with “Z-018” for “Z-025”, “pig” for “rabbit”, “ERS12561817” for “ERS12561824”; conditions: 2 µM
[5] = as §1, with “Z-007” for “Z-025”, “rat” for “rabbit”, “ERS12561807” for “ERS12561824”; conditions: 2 µM
[6] = as §1, with “Z-003” for “Z-025”, “pig” for “rabbit”, “ERS12561803” for “ERS12561824”; conditions: 2 µM
[7] = as §1, with “Z-001” for “Z-025”, “mouse” for “rabbit”, “ERS12561801” for “ERS12561824”; conditions: 2 µM
[8] = as §1, with “WLS-350” for “Z-025”, “human” for “rabbit”, “ERS12561789” for “ERS12561824”; conditions: 2 µM
[9] = as §1, with “WLS-310” for “Z-025”, “human” for “rabbit”, “ERS12561785” for “ERS12561824”; conditions: 2 µM
[10] = as §1, with “WLS-220” for “Z-025”, “human” for “rabbit”, “ERS12561769” for “ERS12561824”; conditions: 2 µM
[11] = as §1, with “WLS-006” for “Z-025”, “human” for “rabbit”, “ERS12561741” for “ERS12561824”; conditions: 2 µM
[12] = human gut metagenome, 24 h, 2 µM
[13] = human gut metagenome, 24 h, 2 µM; remark: listed apart in the source
[14] = human gut metagenome, 24 h, 2 µM; remark: listed apart in the source
[15] = human gut metagenome, 24 h, 2 µM; remark: listed apart in the source
[16] = human gut metagenome, 24 h, 2 µM; remark: listed apart in the source
[17] = human gut metagenome, 24 h, 2 µM; remark: listed apart in the source
[18] = human gut metagenome, 24 h, 2 µM; remark: listed apart in the source
[19] = human gut metagenome, 24 h, 2 µM; remark: listed apart in the source
[20] = human gut metagenome, 24 h, 2 µM; remark: listed apart in the source
Note: call rule not given here.

Bacterial Biotransformation [1] | Bacterial Biotransformation [2] | Bacterial Biotransformation [3] | Bacterial Biotransformation [4] | Bacterial Biotransformation [5] | Bacterial Biotransformation [6] | Bacterial Biotransformation [7] | Bacterial Biotransformation [8] | Bacterial Biotransformation [9] | Bacterial Biotransformation [10] | Bacterial Biotransformation [11] | Bacterial Biotransformation [12] | Bacterial Biotransformation [13] | Bacterial Biotransformation [14] | Bacterial Biotransformation [15] | Bacterial Biotransformation [16] | Bacterial Biotransformation [17] | Bacterial Biotransformation [18] | Bacterial Biotransformation [19] | Bacterial Biotransformation [20] | Structure (SMILES)
Compound NOT metabolized | Compound metabolized | Compound metabolized | Compound NOT metabolized | Compound metabolized | Compound metabolized | Compound metabolized | Compound metabolized | Compound metabolized | Compound metabolized | Compound metabolized | Compound metabolized | Compound metabolized | Compound metabolized | Compound metabolized | Compound metabolized | Compound metabolized | Compound metabolized | Compound metabolized | Compound metabolized | CCOc1cc(CC(=O)N[C@@H](CC(C)C)c2ccccc2N2CCCCC2)ccc1C(=O)O [REPAGLINIDE]
Compound NOT metabolized | Compound NOT metabolized | Compound NOT metabolized | Compound NOT metabolized | Compound NOT metabolized | Compound NOT metabolized | Compound NOT metabolized | Compound NOT metabolized | Compound NOT metabolized | Compound NOT metabolized | Compound NOT metabolized | Compound NOT metabolized | Compound NOT metabolized | Compound NOT metabolized | Compound NOT metabolized | Compound NOT metabolized | Compound NOT metabolized | Compound NOT metabolized | Compound NOT metabolized | Compound NOT metabolized | CC(N)C12CC3CC(CC(C3)C1)C2 (stereo not given) [RIMANTADINE]
Compound NOT metabolized | Compound NOT metabolized | Compound NOT metabolized | Compound metabolized | Compound NOT metabolized | Compound metabolized | Compound NOT metabolized | Compound NOT metabolized | Compound NOT metabolized | Compound metabolized | Compound NOT metabolized | Compound NOT metabolized | Compound NOT metabolized | Compound NOT metabolized | Compound NOT metabolized | Compound metabolized | Compound metabolized | Compound NOT metabolized | Compound metabolized | Compound metabolized | CCCN(CCC)CCc1cccc2c1CC(=O)N2 [ROPINIROLE]

Structure (SMILES) | Bacterial Biotransformation [1] | Bacterial Biotransformation [2] | Bacterial Biotransformation [3] | Bacterial Biotransformation [4] | Bacterial Biotransformation [5] | Bacterial Biotransformation [6] | Bacterial Biotransformation [7] | Bacterial Biotransformation [8] | Bacterial Biotransformation [9] | Bacterial Biotransformation [10] | Bacterial Biotransformation [11] | Bacterial Biotransformation [12] | Bacterial Biotransformation [13] | Bacterial Biotransformation [14] | Bacterial Biotransformation [15] | Bacterial Biotransformation [16] | Bacterial Biotransformation [17] | Bacterial Biotransformation [18] | Bacterial Biotransformation [19] | Bacterial Biotransformation [20]
CCN(C)C(=O)Oc1cccc([C@H](C)N(C)C)c1.O=C(O)C(O)C(O)C(=O)O [RIVASTIGMINE TARTRATE] | Compound NOT metabolized | Compound NOT metabolized | Compound NOT metabolized | Compound NOT metabolized | Compound NOT metabolized | Compound NOT metabolized | Compound NOT metabolized | Compound NOT metabolized | Compound NOT metabolized | Compound NOT metabolized | Compound NOT metabolized | Compound NOT metabolized | Compound NOT metabolized | Compound NOT metabolized | Compound NOT metabolized | Compound NOT metabolized | Compound metabolized | Compound metabolized | Compound NOT metabolized | Compound NOT metabolized
